The source of these data is patent US8709303B2, “Dielectric insulation medium” (ABB Research Ltd., priority 2010, dated 2014).

The nature of data set [1]: risk for human toxicity, concluded from mammalian HFC tests. To be noted: concluded from available results of mammalian HFC tests. From the text: This can be concluded from the available results of mammalian HFC (hydrofluorocarbon) tests. Also, information available on commercial hydrofluoro monoethers give no evidence of carcinogenicity, mutagenicity, reproductive/developmental effect and other chronic effects of the compounds of the present application.

A short description of data set [2]: thermal stability. Conditions: 175° C. for 30 days.
The conditions of data set [3]: products include I2; cited from earlier work.

The structures appear in SMILES notation.

`FC(F)(F)COC(F)(F)F` [2,2,2-trifluoroethyl-trifluoromethyl ether (CF3—O—CH2CF3)]: the “risk for human toxicity” value in data set [1] was “low risk for human toxicity”.

Take `COC(F)(F)C(F)(F)F` [pentafluoro-ethyl-methyl ether, pentafluoro-ethyl-methyl ether (CH3—O—CF2CF3)]: in data set [1], the “risk for human toxicity” value is recorded as “low risk for human toxicity”. The thermal stability entry in data set [2] is given as “thermally stable”.

On to `FC(F)(F)I` [CF3I, trifluoroiodomethane (CF3I)], for which the “temperature at which decomposition into hazardous products starts” value in data set [3] is “around 100 °C”.
